# Source: the supplement of paper PMC10307832
# How the values were obtained:
# Test in all cases: relative viability (nuclei count vs DMSO), 5 days (fraction); higher = more cells survive
# [1] = compound: Cc1nc(NC(=O)N2CCC[C@H]2C(N)=O)sc1-c1ccnc(C(C)(C)C(F)(F)F)c1 [Alpelisib] + CS(=O)(=O)CCNCc1ccc(-c2ccc3ncnc(Nc4ccc(OCc5cccc(F)c5)c(Cl)c4)c3c2)o1 [Lapatinib] (partner 2 µM)
# Method in brief: (§1)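 Relative viability is defined as nuclei in treated wells over nuclei in vehicle wells. Duplicate plates were run and medians reported. Lung cancer cell lines in 1536-well plates were dosed by pin tool one day after seeding, with one drug or with a fixed anchor-drug dose plus five library-drug doses (not always all listed) in √10 steps, and nuclei were counted after 5 days.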
# [2] = compound: CCCS(=O)(=O)Nc1ccc(F)c(C(=O)c2c[nH]c3ncc(-c4ccc(Cl)cc4)cc23)c1F [Vemurafenib] + CS(=O)(=O)CCNCc1ccc(-c2ccc3ncnc(Nc4ccc(OCc5cccc(F)c5)c(Cl)c4)c3c2)o1 [Lapatinib] (partner 2 µM)
# Method in brief: as §1
# [3] = compound: Cc1nc(NC(=O)N2CCC[C@H]2C(N)=O)sc1-c1ccnc(C(C)(C)C(F)(F)F)c1 [Alpelisib] + COc1cc2c(Oc3ccc(NC(=O)C4(C(=O)Nc5ccc(F)cc5)CC4)cc3F)ccnc2cc1OCCCN1CCOCC1 [Foretinib] (partner 0.25 µM)
# Method in brief: as §1
# [4] = compound: COc1cccc2cc(-c3nc([C@H]4CC[C@H](C(=O)O)CC4)n4ncnc(N)c34)[nH]c12 [OSI-027] + CS(=O)(=O)N1CCN(Cc2cc3nc(-c4cccc5[nH]ncc45)nc(N4CCOCC4)c3s2)CC1 [Pictilisib] (partner 1 µM)
# Method in brief: as §1
Cell Line,relative viability ([1]; first compound 0.04 µM),relative viability ([1]; first compound 0.1265 µM),relative viability ([1]; first compound 0.4 µM),relative viability ([1]; first compound 1.265 µM),relative viability ([1]; first compound 4 µM),relative viability ([2]; first compound 0.03162 µM),relative viability ([2]; first compound 0.1 µM),relative viability ([2]; first compound 0.3162 µM),relative viability ([2]; first compound 1 µM),relative viability ([3]; first compound 0.04 µM),relative viability ([3]; first compound 0.1265 µM),relative viability ([3]; first compound 0.4 µM),relative viability ([3]; first compound 1.265 µM),relative viability ([3]; first compound 4 µM),relative viability ([4]; first compound 0.01 µM),relative viability ([4]; first compound 0.03162 µM),relative viability ([4]; first compound 0.1 µM),relative viability ([4]; first compound 0.3162 µM),relative viability ([4]; first compound 1 µM)
A-427,1.03,0.914,0.967,0.926,1.04,0.907,1.07,0.973,1.04,1.19,0.833,1.11,0.831,0.992,0.61,0.664,0.699,0.495,0.378
NCI-H1703,0.949,0.886,0.789,0.526,0.678,1.19,0.916,0.924,0.987,0.295,0.362,0.381,0.271,0.303,0.318,0.242,0.244,0.231,0.201
HCC-366,1.04,1.02,1.14,0.824,0.535,1.09,1.07,,1.05,0.887,0.939,0.868,0.861,0.349,0.179,0.154,0.165,0.124,0.0569
NCI-H661,0.471,0.475,0.525,0.383,0.361,0.488,0.534,0.507,0.424,1.02,1.05,1.08,1.02,0.92,0.42,0.392,0.344,0.254,0.268
NCI-H2126,0.75,0.704,0.701,0.567,0.499,0.753,0.783,0.862,0.731,1.05,1.01,1.04,1.07,0.904,0.519,0.487,0.455,0.419,0.407
LCLC-97TM1,0.75,0.854,0.656,0.686,0.387,0.825,0.981,1.63,0.696,0.879,0.913,0.883,0.73,0.449,0.211,0.208,0.199,0.116,0.126
NCI-H2405,1.07,0.945,1.18,0.783,0.781,0.935,0.986,,1.1,1.1,1,1.1,0.849,0.711,0.406,0.345,0.292,0.228,0.242
COR-L 105,0.338,0.391,0.364,0.287,0.337,0.348,,0.32,0.373,1.08,1.26,1.02,1,1.08,0.389,0.453,0.358,0.377,0.254
BEN,0.715,0.618,0.88,0.688,0.708,0.765,0.77,0.323,0.525,0.792,0.401,0.732,0.737,0.521,0.59,0.472,0.371,0.328,0.272
HCC-827,0.19,0.192,0.211,0.179,0.188,0.209,,0.22,0.191,1,1.05,0.968,0.964,0.746,0.9,0.76,0.891,0.878,0.483
NCI-H3122,1.01,1.02,1.07,1.02,0.919,1.03,1.04,1.12,1.02,1.02,0.884,0.987,0.867,0.821,0.603,0.584,0.513,0.317,0.258
NCI-H1299,0.977,0.981,0.997,1.03,1.02,0.965,0.93,0.885,0.952,1.12,1.12,1.19,0.978,1.12,0.787,0.627,0.548,0.338,0.242
LK-2,0.871,0.763,0.768,0.474,0.564,0.674,0.867,0.835,0.505,1.07,1.19,1.28,0.906,0.932,0.627,0.474,0.305,0.251,0.23
HCC-15,0.897,0.858,0.94,0.823,0.725,0.786,0.849,0.613,0.773,0.982,1,0.961,0.792,0.735,0.768,0.771,0.68,0.596,0.367
IA-LM,0.977,0.802,0.842,0.708,0.74,0.764,0.715,0.684,0.608,1.03,1.31,1.11,1.12,1.13,0.423,0.176,0.181,0.119,0.107
NCI-H1755,1.03,0.962,1.11,0.911,0.851,0.925,1.02,0.777,0.988,0.95,0.924,0.962,0.785,0.731,0.412,0.392,0.346,0.306,0.281
EMC-BAC-2,0.826,0.844,0.84,0.68,0.628,0.874,0.916,0.812,0.882,0.973,0.867,1.01,0.689,0.592,0.597,0.47,0.469,0.431,0.376
